Several values for one entry are separate records, joined by “and”; a condition that tells them apart may be missing. Equal entries are not always repeated. Entries after “also recorded” stand apart in the source; their conditions may differ. No end group written: not given here.
Columns and labels:
[1] = test system: platelet-rich plasma (PRP) prepared from mice; assay: Ex vivo platelet aggregation study (PRP of treated mice, collagen); format: in vivo; details: 10 mg/kg; collagen 3 μg/ml
Procedure: […] The platelet number of the whole blood sample was counted by a Sysmex cell counter (Chuo-Ku Kobe, Japan). PRP was prepared immediately by centrifugation at 200 g for 5 min. Platelet counts in PRP were adjusted to 3×10^8/ml and aggregation assay was performed in an aggregometer.

[2] = test system: [Ca2+]i elevation in platelets; assay: Intracellular Ca2+ level in Fura-2-loaded platelets stimulated with collagen; format: cell-based; details: Fura-2/AM; various concentrations
Procedure: The concentration of intracellular free Ca^2+ was determined using a fluorescent probe, Fura-2/AM, according to the method of Pollock and Rink (Pollock W K, Rink T J. Thrombin and ionomycin can raise platelet cytosolic Ca2+ to micromolar levels by discharge of internal Ca2+ stores: studies using fura-2. Biochemical and biophysical research communications 1986 Aug. 29; 139(1):308-14). Fura-2/AM—loaded platelets were prepared as the washed platelets except washing with Ca^2+-free Tyrode solution and allowed platelets to uptake Fura-2/AM (5 μM) for 30 min in the first wash. The intracellular Ca^2+ level of Fura-2-loaded platelets (3×10^8/ml) in the presence of 1 mM of Ca^2+ was measured by the fluorescence change (excitation at 339 nm, emission at 500 nm) with a Hitachi fluorescence spectrophotometer.

[3] = test system: washed platelets; format: cell-based, human; details: for IC50: read-out: IC50, inhibition of the collagen-induced aggregation
[4] = test system: platelet-rich thrombus formation in irradiated mesenteric venules; assay: Fluorescein sodium-induced platelet thrombus formation in mesenteric venules; format: in vivo, mice
[5] = target: GPVI (Homo sapiens, UniProt Q9HCN6); format: binding
[6] = Tail bleeding time; format: in vivo, mice; details: 5 min after injection
Procedure: Bleeding time was measured by a minor modified method described by Dejana et al (Dejana E, Villa S, de Gaetano G. Bleeding time in rats: a comparison of different experimental conditions. Thrombosis and haemostasis 1982 Aug. 24; 48(1):108-11). […] A sharp cut of 2 mm from tail tip of mouse was made 5 min after injection. The tail was immediately placed into a tube filled with saline, kept at 37° C. for measuring bleeding time.

[7] = Platelet count of whole blood after administration; format: in vivo, mice; details: 30 mg/kg, 5 min after administration; control 11.41±0.19
Procedure: Male ICR mice (25-30 g) were intravenously (IV) injected with PBS or hexapeptide (30 mg/kg), and then blood was collected at 5 min after injection. The platelet number of the whole blood sample was counted by a Sysmex cell counter (Chuo-Ku Kobe, Japan). PRP was prepared immediately by centrifugation at 200 g for 5 min. Platelet counts in PRP were adjusted to 3×10^8/ml and aggregation assay was performed in an aggregometer.

Sequence of GPVI (Q9HCN6 21-339): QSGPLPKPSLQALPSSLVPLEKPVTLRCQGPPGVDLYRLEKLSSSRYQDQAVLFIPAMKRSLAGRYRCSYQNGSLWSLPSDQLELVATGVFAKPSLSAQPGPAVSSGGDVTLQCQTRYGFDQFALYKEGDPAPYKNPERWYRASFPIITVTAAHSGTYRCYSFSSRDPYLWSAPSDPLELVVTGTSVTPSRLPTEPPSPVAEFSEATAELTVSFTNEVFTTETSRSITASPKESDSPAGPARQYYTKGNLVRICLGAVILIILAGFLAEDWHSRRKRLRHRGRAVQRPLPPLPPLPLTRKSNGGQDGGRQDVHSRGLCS
Sequence of GPVI (P30273 19-86, further chain): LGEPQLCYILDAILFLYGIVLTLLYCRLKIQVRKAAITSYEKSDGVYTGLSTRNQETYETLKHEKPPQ

GFCKWMNVAC [Tro-α10]
% of inhibition, collagen-induced platelet aggregation ex vivo [1]: 55.87 ± 10.82 (n = 11) %
Collagen-evoked increase of [Ca2+]i [2]: inhibited by decapeptide in a concentration-dependent manner
IC50, inhibition of the collagen-induced aggregation [3]: 93.75 ± 6.25 (IC50: 35.17 ± 11.00
Inhibition of the collagen-induced aggregation (%) [3]: 60% and 93.75 ± 6.25 (IC50: 35.17 ± 11.00%
IC50 [3]: 30.4 µM
Occlusion time ([4]; 10 mg/kg, control (PBS) 153.0 ± 13.5 s): 294.5 ± 25.4 s
Occlusion time ([4]; 10 mg/kg, control (PBS) 153.0 ± 13.5 s, listed as Decapeptide): 294.5 ± 25.4 s
Binding of anti-GPVI mAb (326E12) to platelets [5]: specifically inhibited

C(dK)WM(dN)V [d-form Tro-α6]
IC50, inhibition of the collagen-induced aggregation [3]: (IC50: 6.82 ± 3.34 μg/ml
Inhibition of the collagen-induced aggregation (%) [3]: 89.44 ± 6.49%
IC50 [3]: 8.75 µM

RKWVNY [Agg-α6]
Inhibition of the collagen-induced aggregation (%) [3]: 21.67 ± 9.33%

CKWANV [Tro-α6 M117A]
Inhibition of the collagen-induced aggregation (%) [3]: 52.91 ± 15.90%

CWNKMV [Tro-α6 scramble]
Inhibitory activity on collagen-induced platelet aggregation (in words) [3]: little effect

CKAMNV [Tro-α6 W116A]
Inhibition of the collagen-induced aggregation (%) [3]: 12.28 ± 2.40%
Inhibitory activity on collagen-induced platelet aggregation (in words) [3]: decreased dramatically; also recorded: diminished

CC(=O)Oc1ccccc1C(=O)O [aspirin, reference compound]
Occlusion time ([4]; 250 mg/kg, control (PBS) 111.1 ± 5.1 s): 298.7 ± 29.6 s
Occlusion time ([4]; 250 mg/kg, control (PBS) 111.1 ± 5.1 s, listed as Aspirin): 298.7 ± 29.6 s
Bleeding time ([6]; 250 mg/kg IV): 8.20 ± 0.91 min

CKWMNV [Tro-α6, CKWMNV]
Platelet count [7]: 11.18±0.30 ×10^8/ml

CCCCS(=O)(=O)N[C@@H](Cc1ccc(OCCCCC2CCNCC2)cc1)C(=O)O [tirofiban]
Bleeding time ([6]; 0.4 mg/kg IV): 4.20 ± 1.20 min

Source: US9617302B2 (priority 2011, dated 2017)
